Experimental data as given in PubChem BioAssay (NCI).
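1) Cells in 96-well plates. 2) Compound, 48 h, 5 concentrations. 3) Linear interpolation between surrounding doses. 4) Unreached endpoint = highest concentration. The concentration for 50% growth inhibition is given as GI50. TGI denotes the concentration required for complete inhibition of growth.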

Assays:
Test in all cases: growth of human tumour cells (NCI), 48 h
[1] = system: CCRF-CEM leukemia
[2] = system: DU-145 prostate
[3] = system: SK-MEL-2 melanoma
[4] = system: U251 CNS
[5] = system: SF-539 CNS
[6] = system: SK-MEL-5 melanoma
[7] = system: RPMI-8226 leukemia
[8] = system: A498 renal
[9] = system: NCI-H522 lung
[10] = system: OVCAR-5 ovarian
[11] = system: RXF 393 renal
[12] = system: SW-620 colon
[13] = system: NCI-H460 lung
[14] = system: NCI-H226 lung
[15] = system: NCI-H23 lung
[16] = system: SNB-19 CNS
[17] = system: T-47D breast
[18] = system: MDA-MB-435
[19] = system: SK-OV-3 ovarian
[20] = system: SNB-75 CNS
[21] = system: NCI/ADR-RES ovarian
[22] = system: HL-60(TB) leukemia
[23] = system: HOP-62 NSCLC
[24] = system: HCT-116 colon
[25] = system: UO-31 renal
[26] = system: MALME-3M melanoma
[27] = system: MDA-MB-231 breast
[28] = system: EKVX NSCLC
[29] = system: HT29 colon
[30] = system: HCT-15 colon
[31] = system: KM12 colon
[32] = system: LOX IMVI melanoma
[33] = system: SF-295 CNS
[34] = system: MOLT-4 leukemia
[35] = system: HS 578T breast
[36] = system: A549 NSCLC
[37] = system: SF-268 CNS
[38] = system: OVCAR-4 ovarian
[39] = system: TK-10 renal
[40] = system: BT-549 breast
[41] = system: HOP-92 NSCLC
[42] = system: PC-3 prostate
[43] = system: K-562 leukemia
[44] = system: IGROV1 ovarian
[45] = system: UACC-257 melanoma
[46] = system: MCF7 breast
[47] = system: COLO 205 colon
[48] = system: CAKI-1 renal
[49] = system: SN12C renal
[50] = system: ACHN renal
[51] = system: 786-0 renal
[52] = system: UACC-62 melanoma
[53] = system: OVCAR-3 ovarian
[54] = system: M14 melanoma
[55] = system: SK-MEL-28 melanoma
[56] = system: OVCAR-8 ovarian
[57] = system: SR leukemia
[58] = system: HCC-2998 colon

C=C1CC2(CCCC3(CC(=C)C(=O)O3)C2(C)C)OC1=O (stereo unspecified)
TGI [1]: 5.74 µM
TGI [2]: 15.8 µM
TGI [3]: 27.7 µM
TGI [4]: 4.56 µM
TGI [5]: 11.4 µM
TGI [6]: 31.8 µM
TGI [7]: 3.57 µM
TGI [8]: 41.9 µM
TGI [9]: 3.7 µM
TGI [10]: 3.33 µM
TGI [11]: 31 µM
TGI [12]: 4.26 µM
TGI [13]: 46.3 µM
TGI [14]: 6.57 µM
TGI [15]: 12.1 µM
TGI [16]: 32.9 µM
TGI [17]: 21.3 µM
TGI [18]: 10.1 µM
TGI [19]: 46.2 µM
TGI [20]: 34.4 µM
TGI [21]: 27.9 µM
TGI [22]: 5.65 µM
TGI [23]: 30.8 µM
TGI [24]: 5.22 µM
TGI [25]: 9.53 µM
TGI [26]: 3.61 µM
TGI [27]: 17.7 µM
TGI [28]: 18.4 µM
TGI [29]: 15 µM
TGI [30]: 1.99 µM
TGI [31]: 21.8 µM
TGI [32]: 3.77 µM
TGI [33]: 33.8 µM
TGI [34]: 1.03 µM
TGI [35]: 58 µM
TGI [36]: 28.9 µM
TGI [37]: 55.5 µM
TGI [38]: 20.2 µM
TGI [39]: 6.31 µM
TGI [40]: 17 µM
TGI [41]: 19.3 µM
TGI [42]: 21.1 µM
TGI [43]: 13.7 µM
TGI [44]: 23.5 µM
TGI [45]: 5.78 µM
TGI [46]: 63.7 µM
TGI [47]: 4.61 µM
TGI [48]: 7.43 µM
TGI [49]: 10.7 µM
TGI [50]: 2.4 µM
TGI [51]: 11.4 µM
TGI [52]: 4.65 µM
TGI [53]: 6.78 µM
TGI [54]: 8.58 µM
TGI [55]: 4.61 µM
TGI [56]: 7.55 µM

Cc1ccc2c(c1)O/C(=C\c1ccc([N+](=O)[O-])o1)C2=O
GI50 [1]: 0.424 µM
TGI [1]: 2.61 µM
GI50 [2]: 2.25 µM
TGI [2]: 6.4 µM
GI50 [3]: 1.9 µM
TGI [3]: 3.72 µM
GI50 [4]: 1.82 µM
TGI [4]: 3.98 µM
GI50 [6]: 1.61 µM
TGI [6]: 3.04 µM
GI50 [7]: 0.447 µM
TGI [7]: 2.54 µM
GI50 [8]: 3.77 µM
TGI [8]: 18.6 µM
GI50 [9]: 0.531 µM
TGI [9]: 1.86 µM
GI50 [10]: 2.4 µM
TGI [10]: 4.75 µM
GI50 [11]: 1.34 µM
TGI [11]: 2.74 µM
GI50 [12]: 0.296 µM
TGI [12]: 1.27 µM
GI50 [13]: 1.58 µM
TGI [13]: 3.22 µM
GI50 [15]: 1.94 µM
TGI [15]: 4.82 µM
GI50 [16]: 3.98 µM
TGI [16]: 21.6 µM
GI50 [17]: 1.86 µM
TGI [17]: 4.77 µM
GI50 [18]: 1.87 µM
TGI [18]: 4.42 µM
GI50 [19]: 4.66 µM
TGI [19]: > 100 µM
GI50 [20]: 2.85 µM
TGI [20]: > 100 µM
GI50 [21]: 2.85 µM
TGI [21]: 23.1 µM
GI50 [22]: 1.92 µM
TGI [22]: 5.09 µM
GI50 [23]: 2.27 µM
TGI [23]: 6.48 µM
GI50 [24]: 0.373 µM
TGI [24]: 1.32 µM
GI50 [25]: 1.18 µM
TGI [25]: 3.46 µM
GI50 [26]: 2.42 µM
TGI [26]: 4.6 µM
GI50 [27]: 1.36 µM
TGI [27]: 3.27 µM
GI50 [29]: 0.659 µM
TGI [29]: 2.08 µM
GI50 [30]: 0.393 µM
TGI [30]: 1.54 µM
GI50 [31]: 1.7 µM
TGI [31]: 3.4 µM
GI50 [32]: 1.47 µM
TGI [32]: 3.1 µM
GI50 [33]: 2.42 µM
TGI [33]: 7.06 µM
GI50 [34]: 2.35 µM
TGI [34]: 7.52 µM
GI50 [35]: 2.09 µM
TGI [35]: 6.25 µM
GI50 [36]: 2.74 µM
TGI [36]: 8.53 µM
GI50 [37]: 1.91 µM
TGI [37]: 5.03 µM
GI50 [38]: 1.47 µM
TGI [38]: 2.84 µM
GI50 [39]: 1.39 µM
TGI [39]: 2.75 µM
GI50 [57]: 0.168 µM
TGI [57]: 0.799 µM
GI50 [40]: 1.82 µM
TGI [40]: 3.47 µM
GI50 [41]: 1.14 µM
TGI [41]: 2.76 µM
GI50 [42]: 1.75 µM
TGI [42]: 5.15 µM
GI50 [43]: 0.388 µM
TGI [43]: 2.04 µM
GI50 [44]: 1.42 µM
TGI [44]: 4.69 µM
GI50 [45]: 1.54 µM
TGI [45]: 3.31 µM
GI50 [46]: 0.432 µM
TGI [46]: 2.01 µM
GI50 [47]: 1.43 µM
TGI [47]: 3.28 µM
GI50 [48]: 1.41 µM
TGI [48]: 2.94 µM
GI50 [49]: 1.92 µM
TGI [49]: 4.96 µM
GI50 [58]: 2.05 µM
TGI [58]: 4.49 µM
GI50 [50]: 1.19 µM
TGI [50]: 2.53 µM
GI50 [51]: 2.15 µM
TGI [51]: 4.72 µM
GI50 [52]: 1.6 µM
TGI [52]: 3.5 µM
GI50 [53]: 1.53 µM
TGI [53]: 2.86 µM
GI50 [54]: 1.75 µM
TGI [54]: 4.07 µM
GI50 [55]: 2.15 µM
TGI [55]: 4.89 µM
GI50 [56]: 1.4 µM
TGI [56]: 6.57 µM
